From ChEMBL document CHEMBL5154867, “Baylis-Hillman Adducts as a Versatile Module for Constructing Fluorogenic Release System” (J Med Chem, 2022)

Assays:
[1] = Prodrug activation in PBS at pH 7.4 assessed as drug release at 10 uM in presence of 1 mM GSH measured after 50 mins by HPLC analysis relative to control; details: buffer, pH 7.4, 50 min
[2] = Prodrug activation in PBS at pH 7.4 assessed as drug release by measuring maximal fluorescence change at 10 uM in presence of 1 mM GSH measured after 40 mins relative to control; details: buffer, pH 7.4, 40 min
[3] = Prodrug activation in PBS at pH 7.4 assessed as drug release at 10 uM in presence of 1 mM GSH measured after 40 mins by HPLC analysis relative to control; details: buffer, pH 7.4, 40 min
[4] = Prodrug activation in PBS at pH 7.4 assessed as drug release at 10 uM in presence of 1 mM GSH measured after 30 mins by HPLC analysis relative to control; details: buffer, pH 7.4, 0.5 h
[5] = Prodrug activation in PBS at pH 7.4 assessed as drug release by measuring maximal fluorescence change at 10 uM in presence of 1 mM GSH measured immediately relative to control; details: buffer, pH 7.4, 10 µM
[6] = Prodrug activation in PBS at pH 7.4 assessed as drug release by measuring maximal fluorescence change at 10 uM in presence of 1 mM GSH measured after 10 mins relative to control; details: buffer, pH 7.4, 10 min
[7] = Prodrug activation in PBS at pH 7.4 assessed as drug release at 10 uM in presence of 1 mM GSH measured after 20 mins by HPLC analysis relative to control; details: buffer, pH 7.4, 20 min
[8] = Prodrug activation in PBS at pH 7.4 assessed as drug release by measuring maximal fluorescence change at 10 uM in presence of 1 mM GSH measured after 50 mins relative to control; details: buffer, pH 7.4, 50 min
[9] = Prodrug activation in PBS at pH 7.4 assessed as drug release at 10 uM in presence of 1 mM GSH measured after 60 mins by HPLC analysis relative to control; details: buffer, pH 7.4, 1 h
[10] = Prodrug activation in PBS at pH 7.4 assessed as drug release by measuring maximal fluorescence change at 10 uM in presence of 1 mM GSH measured after 30 mins relative to control; details: buffer, pH 7.4, 0.5 h
[11] = Prodrug activation in PBS at pH 7.4 assessed as drug release by measuring maximal fluorescence change at 10 uM in presence of 1 mM GSH measured after 60 mins relative to control; details: buffer, pH 7.4, 1 h
[12] = Prodrug activation in PBS at pH 7.4 assessed as drug release by measuring maximal fluorescence change at 10 uM in presence of 1 mM GSH measured after 20 mins relative to control; details: buffer, pH 7.4, 20 min
[13] = Prodrug activation in PBS at pH 7.4 assessed as drug release at 10 uM in presence of 1 mM GSH measured after 10 mins by HPLC analysis relative to control; details: buffer, pH 7.4, 10 min
[14] = Prodrug activation in PBS at pH 7.4 assessed as drug release at 10 uM in presence of 1 mM GSH measured immediately by HPLC analysis relative to control; details: buffer, pH 7.4, 10 µM
[15] = Prodrug activation in PBS at pH 7.4 assessed as drug release by measuring maximal fluorescence change at 10 uM in presence of 2 mM GSH measured after 50 mins relative to control; details: buffer, pH 7.4, 50 min
[16] = Prodrug activation in PBS at pH 7.4 assessed as drug release by measuring maximal fluorescence change at 10 uM in presence of 2 mM GSH measured immediately relative to control; details: buffer, pH 7.4, 10 µM
[17] = Prodrug activation in PBS at pH 7.4 assessed as drug release by measuring maximal fluorescence change at 10 uM in presence of 2 mM GSH measured after 10 mins relative to control; details: buffer, pH 7.4, 10 min
[18] = Prodrug activation in PBS at pH 7.4 assessed as drug release at 10 uM in presence of 2 mM GSH measured after 10 mins by HPLC analysis relative to control; details: buffer, pH 7.4, 10 min
[19] = Prodrug activation in PBS at pH 7.4 assessed as drug release by measuring maximal fluorescence change at 10 uM in presence of 2 mM GSH measured after 20 mins relative to control; details: buffer, pH 7.4, 20 min
[20] = Prodrug activation in PBS at pH 7.4 assessed as drug release at 10 uM in presence of 2 mM GSH measured after 20 mins by HPLC analysis relative to control; details: buffer, pH 7.4, 20 min
[21] = Prodrug activation in PBS at pH 7.4 assessed as drug release at 10 uM in presence of 2 mM GSH measured after 40 mins by HPLC analysis relative to control; details: buffer, pH 7.4, 40 min
[22] = Prodrug activation in PBS at pH 7.4 assessed as drug release by measuring maximal fluorescence change at 10 uM in presence of 2 mM GSH measured after 40 mins relative to control; details: buffer, pH 7.4, 40 min
[23] = Prodrug activation in PBS at pH 7.4 assessed as drug release at 10 uM in presence of 2 mM GSH measured after 50 mins by HPLC analysis relative to control; details: buffer, pH 7.4, 50 min
[24] = Prodrug activation in PBS at pH 7.4 assessed as drug release at 10 uM in presence of 2 mM GSH measured immediately by HPLC analysis relative to control; details: buffer, pH 7.4, 10 µM
[25] = Prodrug activation in PBS at pH 7.4 assessed as drug release at 10 uM in presence of 2 mM GSH measured after 60 mins by HPLC analysis relative to control; details: buffer, pH 7.4, 1 h
[26] = Prodrug activation in PBS at pH 7.4 assessed as drug release by measuring maximal fluorescence change at 10 uM in presence of 2 mM GSH measured after 60 mins relative to control; details: buffer, pH 7.4, 1 h
[27] = Prodrug activation in PBS at pH 7.4 assessed as drug release at 10 uM in presence of 2 mM GSH measured after 30 mins by HPLC analysis relative to control; details: buffer, pH 7.4, 0.5 h
[28] = Prodrug activation in PBS at pH 7.4 assessed as drug release by measuring maximal fluorescence change at 10 uM in presence of 2 mM GSH measured after 30 mins relative to control; details: buffer, pH 7.4, 0.5 h
[29] = Prodrug activation in PBS at pH 7.4 assessed as drug release by measuring maximal fluorescence change at 10 uM in presence of 2 mM GSH measured after 60 to 300 mins relative to control; details: buffer, pH 7.4, 10 µM, time 60-300 min
[30] = Prodrug activation in PBS at pH 7.4 assessed as drug release at 10 uM in presence of 2 mM GSH measured after 60 to 300 mins by HPLC analysis relative to control; details: buffer, pH 7.4, 10 µM, time 60-300 min

C=C(C[N+](C)(C)Cc1ccccc1)C(=O)c1ccc2cc(N(C)C)ccc2c1.[Br-]
Activity [1]: 99.6%
Activity [2]: 97.2%
Activity [3]: 98.5%
Activity [4]: 98.2%
Activity [5]: 0.5%
Activity [6]: 48.1%
Activity [7]: 97.8%
Activity [8]: 98.4%
Activity [9]: 98.9%
Activity [10]: 90.6%
Activity [11]: 99%
Activity [12]: 90.6%
Activity [13]: 95.6%
Activity [14]: 0%

C=C(COC(=O)OCc1ccccc1)C(=O)c1ccc2cc(N(C)C)ccc2c1
Activity [1]: 94.6%
Activity [2]: 96.5%
Activity [3]: 94.6%
Activity [4]: 95.5%
Activity [5]: 3.9%
Activity [6]: 41%
Activity [7]: 94.5%
Activity [8]: 96.5%
Activity [9]: 95.1%
Activity [10]: 83.6%
Activity [11]: 97.4%
Activity [12]: 65.4%
Activity [13]: 93.4%
Activity [14]: 0%

C=C(COc1ccccc1)C(=O)c1ccc2cc(N(C)C)ccc2c1
Activity [1]: 93.2%
Activity [2]: 95.5%
Activity [3]: 92.7%
Activity [4]: 93.5%
Activity [5]: 0.7%
Activity [6]: 38.8%
Activity [7]: 93.5%
Activity [8]: 97.3%
Activity [9]: 93.5%
Activity [10]: 87.9%
Activity [11]: 99.1%
Activity [12]: 70.1%
Activity [13]: 91.2%
Activity [14]: 0%

C=C(CSc1ccccc1)C(=O)c1ccc2cc(N(C)C)ccc2c1
Activity [1]: 94.8%
Activity [2]: 86.3%
Activity [3]: 95.1%
Activity [4]: 90.6%
Activity [5]: 3.1%
Activity [6]: 27.2%
Activity [7]: 76.6%
Activity [8]: 93.7%
Activity [9]: 95.4%
Activity [10]: 72.2%
Activity [11]: 96.5%
Activity [12]: 53.5%
Activity [13]: 42.6%
Activity [14]: 0%

C=C(COC(=O)c1ccccc1)C(=O)c1ccc2cc(N(C)C)ccc2c1
Activity [15]: 97.8%
Activity [16]: 1.4%
Activity [17]: 40.1%
Activity [18]: 92.8%
Activity [19]: 71.2%
Activity [20]: 97.3%
Activity [21]: 98.7%
Activity [22]: 95.7%
Activity [23]: 99.9%
Activity [24]: 0%
Activity [25]: 72.1%
Activity [26]: 83.2%
Activity [27]: 98.6%
Activity [28]: 88.1%

C=C(COC(=O)Nc1ccccc1)C(=O)c1ccc2cc(N(C)C)ccc2c1
Activity [1]: 97.9%
Activity [2]: 88.9%
Activity [3]: 97.1%
Activity [4]: 96.5%
Activity [5]: 2.7%
Activity [6]: 39.3%
Activity [7]: 91.1%
Activity [8]: 94.6%
Activity [9]: 98.2%
Activity [10]: 79.9%
Activity [11]: 96.5%
Activity [12]: 64.6%
Activity [13]: 82.6%
Activity [14]: 0%

C=C(COC(=O)Cc1ccccc1)C(=O)c1ccc2cc(N(C)C)ccc2c1
Activity [1]: 98.7%
Activity [2]: 95.3%
Activity [3]: 97.5%
Activity [4]: 98.3%
Activity [5]: 1.2%
Activity [6]: 42.4%
Activity [7]: 97.1%
Activity [8]: 97.7%
Activity [9]: 99.1%
Activity [10]: 89.2%
Activity [11]: 98.1%
Activity [12]: 71.5%
Activity [13]: 94.3%
Activity [14]: 0%

C=C(CN(C)Cc1ccccc1)C(=O)c1ccc2cc(N(C)C)ccc2c1
Activity [1]: 93.1%
Activity [2]: 93.5%
Activity [3]: 92%
Activity [4]: 92.2%
Activity [5]: 3.8%
Activity [6]: 50.5%
Activity [7]: 91.8%
Activity [8]: 96.5%
Activity [9]: 92.4%
Activity [10]: 85.1%
Activity [11]: 97.1%
Activity [12]: 72.5%
Activity [13]: 88.2%
Activity [14]: 0%

C=C(CSCc1ccccc1)C(=O)c1ccc2cc(N(C)C)ccc2c1
Activity [15]: 78.3%
Activity [16]: 4.8%
Activity [17]: 14.8%
Activity [18]: 5.6%
Activity [19]: 22.1%
Activity [29]: 98.6%
Activity [20]: 13.9%
Activity [30]: 99.9%
Activity [21]: 35.2%
Activity [22]: 42.2%
Activity [23]: 68.6%
Activity [24]: 0%
Activity [27]: 19.9%
Activity [28]: 27.5%
